Results on six compounds are retold here after patent US20250206758A1, “SUBSTITUTED BRIDGED RING INHIBITOR, PREPARATION METHOD THEREFOR AND APPLICATION THEREOF” (SUZHOU ZELGEN BIOPHARMACEUTICALS CO., LTD., priority 2022, published 2025).

For data set [1], the system named is GP2D. The data set is described as follows: Cell proliferation inhibition, GP2D (CellTiter-Glo 3D, 7 days). The settings on record: 168 h. The format is cell-based. The gist of the method:
(§1)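 Cells exposed to compound (final DMSO 0.5%) in duplicate for 7 days at 37 °C, 5% CO2, then CellTiter-Glo 3D added with 20 min shaking and 2 h dark incubation before luminescence. Inhibition normalized to medium and blank controls; IC50, minimum and maximum inhibition from curve fits.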

Data set [2] relates to AsPC-1. The data set is described as follows: Cell proliferation inhibition, AsPC-1 (CellTiter-Glo 3D, 7 days). Format: cell-based. The settings on record: Homo sapiens, ASPC1, 168 h; AsPC-1, 7 days. Summed up: as §1
(ATP-based viability assays read luminescence as a measure of living cells.)

Data set [3] concerns AGS. As to the kind of experiment: Cell proliferation inhibition, AGS (CellTiter-Glo 3D, 7 days). Format: cell-based. The conditions noted are these: Homo sapiens, 168 h. The protocol: • (a) Resuscitating cells in T75 cell culture flask: • (b) When the cell confluence reaches 80-90%, subculturing the cells.
The diluted test compound was added to a 384-well cell culture plate with a nanoliter pipetting system, and duplicate wells were set up. An equal volume of culture medium was added to the positive control group; and an equal volume of DMSO was added to the negative control group, then centrifugation was conducted at 1000 rpm for 1 min at room temperature.
Cells were inoculated into a) 384-well culture plate, with an equal volume of cells added to the negative control group, and only an equal volume of culture medium added to the positive control group. The plate was centrifuged at 1000 rpm for 1 min at room temperature, and the final DMSO concentration of the compound was 0.5% at last. The plate was placed in a 37° C., 5% CO2 constant temperature incubator for 7 days.
20 μL/well of CellTiter-Glo® 3D to b) was added to 384-well cell culture plate, and the plate was shook at 320 rpm for 20 min in the dark, and incubated at room temperature in the dark for 2 hrs.
The luminescence value was read using an Envision multi-functional microplate reader.
The inhibition rate (IR) of the test compound was calculated using the following formula: IR (%)=(1−(RLU compound−RLU blank control)/(RLU meidum control−RLU blank control))*100%. The inhibition rates of different concentrations of compounds were calculated in Excel, and then the inhibition curves were plotted and the related parameters (including the minimum inhibition rate, maximum inhibition rate and IC50) were calculated using GraphPad Prism software.

The nature of data set [4]: in vivo. The settings on record: male, ICR, mouse, po, 30 mg/kg.
Procedure: Male ICR mice, weighing 22-24 g, were fasted overnight and orally administered with 30 mg/kg of a solution of the compound of the present invention or the control compound [10% DMSO+60% PEG400+30% aqueous solution]. Blood was collected at 0.25, 0.5, 1.0, 2.0, 4.0, 6.0, 8.0, 12.0 and 24 h after administration of the compound of the present invention respectively, and the concentration of the compound of the present invention or the control compound in plasma was determined by LC/MS/MS.

As to `C#Cc1c(F)ccc2cc(O)cc(-c3ncc4c(N5C[C@H]6CC[C@@H](C5)N6)nc(OC[C@@]56CCCN5C[C@@]5(CC5(F)F)C6)nc4c3F)c12` [Example 16B-1, 4-(4-((1R,5S)-3,8-diazabicyclo[3.2.1]octan-3-yl)-2-(((1S,7a'S)-2,2-difluorodihydro-1′H,3′H-spiro[cyclopropan-1,2′-pyrrolizin]-7a′(5′H)-yl)methoxy)-8-fluoropyridino[4,3-d]pyrimidin-7-yl)-5-ethynyl-6-fluoronaphthalen-2-ol], the IC50 in data set [1] was determined as 0.2 nM; in data set [2], 1.24 nM; in data set [3], 1.37 nM.

On to `N#Cc1c(N)sc2c(F)ccc(-c3ncc4c(N5CC6CCC(C5)N6)nc(OC[C@@]56CCCN5C[C@@]5(CC5(F)F)C6)nc4c3F)c12` [Example 24], for which 2.5 nM corresponded to half-maximal inhibition in data set [1] (IC50). In data set [2], this compound displayed an IC50 of 62 nM. For the same compound, in data set [4], the AUC(0-inf) was 1270 ng·h/mL, the AUC(0-t) worked out at 1250 ng·h/mL, the peak level (Cmax) was 461 ng/mL and the Tmax was 0.5 h. Further, the half-life in data set [4] is 4.74 h.

On to `Cc1cc(N)c(F)c(-c2ncc3c(N4C[C@H]5CC[C@@H](C4)N5)nc(OC[C@@]45CCCN4C[C@@]4(CC4(F)F)C5)nc3c2F)c1C(F)(F)F` [Example 26, 3-(4-((1R,5S)-3,8-diazabicyclo[3.2.1]octan-3-yl)-2-(((1S,7a'S)-2,2-difluorodihydro-1′H,3′H-spiro[cyclopropan-1,2′-pyrrolizin]-7a′(5′H)-yl)methoxy)-8-fluoropyridino[4,3-d]pyrimidin-7-yl)-2-fluoro-5-methyl-4-(trifluoromethyl)aniline], for which, in data set [4], the AUC(0-inf) is 3770 ng·h/mL, the AUC(0-t) is 3380 ng·h/mL, the highest level (Cmax) was 462 ng/mL and the Tmax was found to be 0.25 h. The compound further showed a half-life in data set [4] of 6.97 h.

Take `Nc1cc(Cl)c(C(F)(F)F)c(-c2ncc3c(N4C[C@H]5CC[C@@H](C4)N5)nc(OC[C@@]45CCCN4C[C@@]4(CC4(F)F)C5)nc3c2F)c1F` [Example 34, 3-(4-((1R,5S)-3,8-diazabicyclo[3.2.1]octan-3-yl)-2-(((1S,7a'S)-2,2-difluorodihydro-1′H,3′H-spiro[cyclopropan-1,2′-pyrrolizin]-7a′(5′H)-yl)methoxy)-8-fluoropyridino[4,3-d]pyrimidin-7-yl)-5-chloro-2-fluoro-4-(trifluoromethyl)aniline]: the IC50 in data set [1] was 1.03 nM; in data set [2] it was 11.1 nM; in data set [3] it was 21.5 nM.

As for `Nc1cc(Cl)c(C(F)(F)F)c(-c2ncc3c(N4C[C@H]5CC[C@@H](C4)N5)nc(OC[C@@]45CCCN4C[C@@]4(CC4(F)F)C5)nc3c2F)c1Cl` [Example 35, 3-(4-((1R,5S)-3,8-diazabicyclo[3.2.1]octan-3-yl)-2-(((1S,7a′S)-2,2-difluorodihydro-1′H,3′H-spiro[cyclopropan-1,2′-pyrrolizin]-7a′(5′H)-yl)methoxy)-8-fluoropyridino[4,3-d]pyrimidin-7-yl)-2,5-dichloro-4-(trifluoromethyl)aniline], the IC50 was 4.89 nM in data set [1], 45.7 nM in data set [2] and 79.7 nM in data set [3].

For the compound `Nc1cc(F)c(C(F)(F)F)c(-c2ncc3c(N4C[C@H]5CC[C@@H](C4)N5)nc(OC[C@@]45CCCN4C[C@@]4(CC4(F)F)C5)nc3c2F)c1Cl` [Example 36, 3-(4-((1R,5S)-3,8-diazabicyclo[3.2.1]octan-3-yl)-2-(((1S,7a'S)-2,2-difluorodihydro-1′H,3′H-spiro[cyclopropan-1,2′-pyrrolizin]-7a′(5′H)-yl)methoxy)-8-fluoropyridino[4,3-d]pyrimidin-7-yl)-2-chloro-5-fluoro-4-(trifluoromethyl)aniline], the IC50 turned out to be 20.4 nM in data set [1], 167 nM in data set [2] and 298 nM in data set [3].

For orientation: IC50 means the concentration at which inhibition is half-maximal. A higher IC50 goes with a need for much substance. One may read the AUC(0-inf) as the area under the concentration-time curve extrapolated to infinity. Broadly, the AUC(0-t) is the area under the concentration-time curve up to a stated or last time point. A lower AUC(0-t) goes with low exposure. By Cmax is commonly meant the highest concentration seen after dosing. In general, Tmax refers to the time from dosing to the highest level. As a reminder, the half-life is the time in which the quantity being followed falls by half. The low end stands for fast loss, the high end for slow loss.
